≈ marks a conversion by molar mass, not a printed value.
What was measured:
Assay type in all cases: functional
Staphylococcus aureus = experiment: Antibacterial activity against Staphylococcus aureus ATCC 25923 after 18 to 25 hrs by serial plate dilution method
Streptococcus pyogenes = experiment: Antibacterial activity against Streptococcus pyogenes clinical isolate after 18 to 25 hrs by serial plate dilution method
Pseudomonas aeruginosa = experiment: Antibacterial activity against Pseudomonas aeruginosa ATCC 27853 after 18 to 25 hrs by serial plate dilution method
Klebsiella pneumoniae = experiment: Antibacterial activity against Klebsiella pneumoniae clinical isolates after 18 to 25 hrs by serial plate dilution method
Escherichia coli = experiment: Antibacterial activity against Escherichia coli ATCC 25922 after 18 to 25 hrs by serial plate dilution method
[1] = system: Mycobacterium tuberculosis; experiment: Antimycobacterial activity against Mycobacterium tuberculosis H37Rv ATCC 27294 using compound level ranging from 1 to 100 ug/mL after 7 days by resazurin reduction test; conditions: H37Rv ATCC 27294, 168 h
[2] = system: Mycolicibacterium smegmatis; experiment: Antimycobacterial activity against Mycobacterium smegmatis MC2 ATCC 19420 using compound level ranging from 1 to 100 ug/mL after 7 days by resazurin reduction test; conditions: MC2 ATCC 19420, 168 h
[3] = system: Mycolicibacterium fortuitum; experiment: Antimycobacterial activity against Mycobacterium fortuitum ATCC 19542 using compound level ranging from 1 to 100 ug/mL after 7 days by resazurin reduction test; conditions: ATCC 19542, 168 h
[4] = system: Mycobacterium tuberculosis; experiment: Growth inhibition of Mycobacterium tuberculosis H37Rv ATCC 27294 using compound level ranging from 1 to 100 ug/mL after 7 days by resazurin reduction test
[5] = system: Mycobacterium tuberculosis; experiment: Antimycobacterial activity against Mycobacterium tuberculosis H37Rv ATCC 27294 using compound level ranging from 0.3125 to 5 ug/mL after 7 days by resazurin reduction test; conditions: H37Rv ATCC 27294, 168 h
[6] = system: Mycolicibacterium smegmatis; experiment: Antimycobacterial activity against Mycobacterium smegmatis MC2 ATCC 19420 using compound level ranging from 0.3125 to 5 ug/mL after 7 days by resazurin reduction test; conditions: MC2 ATCC 19420, 168 h
[7] = system: Mycolicibacterium fortuitum; experiment: Antimycobacterial activity against Mycobacterium fortuitum ATCC 19542 using compound level ranging from 0.3125 to 5 ug/mL after 7 days by resazurin reduction test; conditions: ATCC 19542, 168 h

Compound	MIC (Staphylococcus aureus) [µg/mL]	MIC (Streptococcus pyogenes) [µg/mL]	MIC (Pseudomonas aeruginosa) [µg/mL]	MIC (Klebsiella pneumoniae) [µg/mL]	MIC (Escherichia coli) [µg/mL]	MIC [1] [µg/mL]	MIC [2] [µg/mL]	MIC [3] [µg/mL]	growth inhibition (GI) [4] [%]	MIC [5] [µg/mL]	MIC [6] [µg/mL]	MIC [7] [µg/mL]
COc1ccc(NC(=O)NNC(=O)c2cnc3c(C(F)(F)F)cccc3c2O)cc1	0.8 (≈ 1.9 µM)	0.4 (≈ 0.952 µM)	0.4 (≈ 0.952 µM)	0.1 (≈ 0.238 µM)	0.1 (≈ 0.238 µM)	1 (≈ 2.38 µM)	10 (≈ 23.8 µM)	10 (≈ 23.8 µM)	90	1.25 (≈ 2.97 µM)	10 (≈ 23.8 µM)	12.5 (≈ 29.7 µM)
COc1ccc(/C=N/NC(=O)c2cnc3c(C(F)(F)F)cccc3c2O)cc1	0.8 (≈ 2.05 µM)	0.4 (≈ 1.03 µM)	0.8 (≈ 2.05 µM)	0.8 (≈ 2.05 µM)	0.4 (≈ 1.03 µM)	1 (≈ 2.57 µM)	10 (≈ 25.7 µM)	10 (≈ 25.7 µM)	90	1.25 (≈ 3.21 µM)	10 (≈ 25.7 µM)	10 (≈ 25.7 µM)

Reference: ChEMBL document CHEMBL1909590, “Design, synthesis and docking studies of new quinoline-3-carbohydrazide derivatives as antitubercular agents” (2011)
